From ChEMBL document CHEMBL5505963, “Novel berberine derivatives as p300 histone acetyltransferase inhibitors in combination treatment for breast cancer” (Eur J Med Chem, 2024)
Each block holds one compound with its values, some of them ahead of it. The source made the active and inactive calls. The rule behind the calls is not given here.

Key:
MCF-10A = test: Antiproliferative activity against human MCF-10A cells assessed as inhibition of cell growth incubated for 48 hrs by MTT assay; format: functional, cell-based
LNCaP = test: Antiproliferative activity against human LNCaP cells assessed as inhibition of cell growth incubated for 48 hrs by MTT assay; format: functional, cell-based
MCF7 [1] = test: Antiproliferative activity against human MCF7 cells assessed as inhibition of cell growth incubated for 48 hrs by MTT assay; format: functional, cell-based; settings: MCF7, 48 h
PANC-1 = test: Antiproliferative activity against human PANC-1 cells assessed as inhibition of cell growth incubated for 48 hrs by MTT assay; format: functional, cell-based; settings: PANC-1, 48 h
[2] = molecular target: Histone acetyltransferase p300 (Homo sapiens, UniProt Q09472); test: Inhibition of p300 HAT (unknown origin) using 3H-acetyl-CoA as substrate assessed as H3 peptide acetylation preincubated with compound for 15 mins followed by substrate addition and measured after 30 mins by microbeta scintillation counter analysis
Histone acetyltransferase p300, sequence (Q09472 whole entry): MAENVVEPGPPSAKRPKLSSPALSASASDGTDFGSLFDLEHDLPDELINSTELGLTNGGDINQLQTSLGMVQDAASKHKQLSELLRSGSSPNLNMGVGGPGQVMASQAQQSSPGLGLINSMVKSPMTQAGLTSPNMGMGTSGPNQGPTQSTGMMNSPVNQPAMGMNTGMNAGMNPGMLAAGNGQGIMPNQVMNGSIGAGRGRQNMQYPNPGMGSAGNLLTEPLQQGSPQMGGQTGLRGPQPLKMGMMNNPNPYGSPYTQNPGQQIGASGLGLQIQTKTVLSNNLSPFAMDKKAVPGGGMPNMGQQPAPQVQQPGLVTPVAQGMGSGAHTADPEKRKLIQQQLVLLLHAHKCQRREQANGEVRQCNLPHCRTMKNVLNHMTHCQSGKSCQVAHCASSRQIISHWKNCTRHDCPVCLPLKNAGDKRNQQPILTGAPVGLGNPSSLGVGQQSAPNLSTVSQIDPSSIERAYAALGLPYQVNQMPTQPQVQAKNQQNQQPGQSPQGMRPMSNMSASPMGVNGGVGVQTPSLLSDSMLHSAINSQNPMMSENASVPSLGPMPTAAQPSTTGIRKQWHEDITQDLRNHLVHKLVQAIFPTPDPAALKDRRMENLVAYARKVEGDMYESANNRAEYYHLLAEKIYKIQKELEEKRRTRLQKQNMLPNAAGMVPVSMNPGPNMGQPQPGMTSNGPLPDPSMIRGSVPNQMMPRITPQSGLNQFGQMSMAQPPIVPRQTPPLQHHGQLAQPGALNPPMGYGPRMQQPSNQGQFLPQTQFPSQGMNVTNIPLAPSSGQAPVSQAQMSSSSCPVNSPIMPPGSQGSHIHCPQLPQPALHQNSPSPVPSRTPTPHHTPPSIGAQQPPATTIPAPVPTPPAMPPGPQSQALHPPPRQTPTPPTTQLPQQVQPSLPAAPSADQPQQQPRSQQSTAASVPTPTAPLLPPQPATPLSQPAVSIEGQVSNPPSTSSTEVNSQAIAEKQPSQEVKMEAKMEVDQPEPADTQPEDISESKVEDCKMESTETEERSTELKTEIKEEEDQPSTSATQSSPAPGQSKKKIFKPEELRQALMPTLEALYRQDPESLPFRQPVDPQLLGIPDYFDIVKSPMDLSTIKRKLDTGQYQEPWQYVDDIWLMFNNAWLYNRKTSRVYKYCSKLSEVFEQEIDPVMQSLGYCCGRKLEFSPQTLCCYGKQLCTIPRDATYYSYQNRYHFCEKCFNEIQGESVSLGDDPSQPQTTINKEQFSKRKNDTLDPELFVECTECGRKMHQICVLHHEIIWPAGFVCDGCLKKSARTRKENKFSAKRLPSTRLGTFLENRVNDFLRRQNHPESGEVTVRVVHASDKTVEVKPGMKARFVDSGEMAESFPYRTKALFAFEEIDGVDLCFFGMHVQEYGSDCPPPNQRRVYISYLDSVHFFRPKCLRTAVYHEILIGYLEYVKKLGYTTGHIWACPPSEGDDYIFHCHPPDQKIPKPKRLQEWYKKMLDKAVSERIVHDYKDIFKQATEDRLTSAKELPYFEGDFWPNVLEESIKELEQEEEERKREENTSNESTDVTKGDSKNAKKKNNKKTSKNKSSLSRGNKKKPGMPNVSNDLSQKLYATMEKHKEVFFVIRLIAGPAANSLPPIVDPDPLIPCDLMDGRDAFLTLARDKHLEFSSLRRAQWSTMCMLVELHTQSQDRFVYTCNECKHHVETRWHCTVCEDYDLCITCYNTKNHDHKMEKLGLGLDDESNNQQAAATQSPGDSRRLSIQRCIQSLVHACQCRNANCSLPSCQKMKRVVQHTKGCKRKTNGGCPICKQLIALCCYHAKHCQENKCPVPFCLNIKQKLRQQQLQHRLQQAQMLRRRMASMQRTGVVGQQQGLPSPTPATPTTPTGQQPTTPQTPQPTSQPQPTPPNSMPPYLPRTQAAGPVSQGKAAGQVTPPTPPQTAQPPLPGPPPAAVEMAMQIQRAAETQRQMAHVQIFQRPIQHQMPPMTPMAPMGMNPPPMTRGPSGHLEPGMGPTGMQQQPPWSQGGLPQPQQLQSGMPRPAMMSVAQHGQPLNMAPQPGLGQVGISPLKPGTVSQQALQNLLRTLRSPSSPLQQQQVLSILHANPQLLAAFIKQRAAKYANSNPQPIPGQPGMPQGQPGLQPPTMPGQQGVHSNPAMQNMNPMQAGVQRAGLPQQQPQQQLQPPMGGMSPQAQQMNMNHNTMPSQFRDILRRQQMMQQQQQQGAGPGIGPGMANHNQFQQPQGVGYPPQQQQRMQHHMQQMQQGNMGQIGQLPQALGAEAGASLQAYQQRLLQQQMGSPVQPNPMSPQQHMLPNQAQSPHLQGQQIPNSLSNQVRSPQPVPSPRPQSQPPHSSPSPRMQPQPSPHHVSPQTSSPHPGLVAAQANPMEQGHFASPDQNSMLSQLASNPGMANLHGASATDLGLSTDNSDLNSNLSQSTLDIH

MCF7 [3] = test: Downregulation of survivin level in human MCF7 cells at 1 microg/ml incubated for 24 hrs by Western blot analysis; format: functional, cell-based; settings: dose 1.0 µg/ml
MCF7 [4] = test: Inhibition of cell invasion in human MCF7 cells measured after 24 hrs by crystal violet staining based microscopic analysis; format: functional
MCF7 [5] = test: Induction of apoptosis in human MCF7 cells assessed as upregulation of cleaved caspase 3 level at 1 microg/ml incubated for 24 hrs by Western blot analysis; format: functional, cell-based; settings: dose 1.0 µg/ml
MCF7 [6] = test: Inhibition of cell migration in human MCF7 cells assessed as reduction in scratch measured after 24 hrs by microscopic analysis; format: functional
MCF7 [7] = test: Induction of apoptosis in human MCF7 cells assessed as upregulation of cleaved PARP level at 1 microg/ml uM incubated for 24 hrs by Western blot analysis; format: functional, cell-based; settings: dose 1.0 µg/ml
MCF7 [8] = test: Antiproliferative activity against human MCF7 cells assessed as inhibition of cell proliferation incubated for 48 hrs by MTT assay; format: functional, cell-based; settings: MCF7, 48 h
MCF7 [9] = test: Antitumor activity against human MCF7 cells xenografted in BALB/c nude mouse assessed as tumor growth inhibition at 2 mg/kg, ip measured upto 14 days; format: functional; settings: MCF7, 336 h, time <= 14 day, read-out: TGI

IC50 [2]: > 20 µM
SMILES: COc1ccc2cc3[n+](cc2c1OC)CCCOc1cc2c(cc1-3)OCO2

IC50 [2]: 8.01 µM
SMILES: COc1ccc2cc3[n+](cc2c1OC)CCOc1cc2c(cc1-3)OCO2

IC50 [2]: > 20 µM
SMILES: COc1ccc2cc3[n+](cc2c1OC)CCc1c-3oc2ccccc12

Further lines, the compound ahead of its results:

SMILES: COc1cc2cc3[n+](cc2cc1OC)CCCOc1cc2c(cc1-3)OCO2
IC50 (MCF-10A): > 50 µM
IC50 (LNCaP): 33.5 µM
IC50 (MCF7 [1]): 37.8 µM
IC50 (PANC-1): 38.6 µM
IC50 [2]: 3.69 µM

SMILES: COc1cccc2c1C(=O)c1c(O)c3c(c(O)c1C2=O)C[C@@](O)(C(=O)CO)C[C@@H]3O[C@H]1C[C@H](N)[C@H](O)[C@H](C)O1 [DOXORUBICIN]
Activity (MCF7 [3]): Active
inhibition (MCF7 [4]): Active
Activity (MCF7 [5]): inactive
inhibition (INH) (MCF7 [6]): 62.43%
Activity (MCF7 [7]): inactive
IC50 (MCF7 [8]): 2.46 µM
inhibition in vivo at 2 mg/kg (MCF7 [9]): 64.3%

SMILES: COc1ccc2cc3[n+](cc2c1OC)CCSc1cc2c(cc1-3)OCO2
IC50 [2]: 10.3 µM
